This data set in a line: Storage stability of allicin in aqueous solution. The data set is classed as physicochemical.

Regarding `C=CCS[S+]([O-])CC=C` (centres unmarked) [allicin, thio-2-propene-1-sulfinic acid S-allyl ester], the stability in solution entry runs as follows: (0.5% solution at −40° C., filtered to remove impurities) “reasonably stable”; (concentrations above 0.5% solution in water) “extremely unstable”; (solution of up to 1.0% v/v allicin) “unstable”. Under “diluted solution, pH controlled to approximately pH 4.5”, the “effect of pH on stability” value is “increases the stability”. In addition, the stability on storage result (non-extracted solution diluted to approximately 'it' allicin, stored below −20° C.) is on record as “stable for several months”.
